In patent publication US20240182465A1 (GENFLEET THERAPEUTICS (SHANGHAI) INC., priority 2021, published 2024):
Counter-ions that a name gives are not always drawn.

Legend:
HPK1 [1] = molecular target: T1, HPK1 (Homo sapiens, UniProt Q92918); experiment: HPK1 kinase activity assay (ADP-Glo); settings: HPK1 Kinase activity IC50 (nM), 1 nM HPK1, 10 μM ATP, 0.1 μg/μL MBP
T1 sequence (Q92918 1-346 limits assumed): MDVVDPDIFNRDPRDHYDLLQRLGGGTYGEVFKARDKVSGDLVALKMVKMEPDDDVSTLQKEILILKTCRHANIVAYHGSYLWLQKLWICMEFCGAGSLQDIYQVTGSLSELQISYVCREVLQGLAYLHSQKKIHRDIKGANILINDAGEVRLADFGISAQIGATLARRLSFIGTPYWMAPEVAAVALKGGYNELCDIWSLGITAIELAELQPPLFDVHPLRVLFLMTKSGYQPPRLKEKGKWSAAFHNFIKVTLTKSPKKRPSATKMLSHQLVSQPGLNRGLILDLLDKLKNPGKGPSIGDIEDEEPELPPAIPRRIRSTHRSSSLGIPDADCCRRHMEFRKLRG

HPK1 [2] = molecular target: HPK1 (Homo sapiens, UniProt Q92918); experiment: SLP76 phosphorylation assay (intracellular HPK1 inhibitory activity, p-SLP76 Ser376 sandwich ELISA); settings: p-SLP76 IC50(nM), Jurkat, Clone E6-1 cells; 1 h compound pre-incubation, anti-CD3 beads stimulation 20 min; SLP76 phosphorylation at S376
Target sequence in this assay (Q92918 whole entry): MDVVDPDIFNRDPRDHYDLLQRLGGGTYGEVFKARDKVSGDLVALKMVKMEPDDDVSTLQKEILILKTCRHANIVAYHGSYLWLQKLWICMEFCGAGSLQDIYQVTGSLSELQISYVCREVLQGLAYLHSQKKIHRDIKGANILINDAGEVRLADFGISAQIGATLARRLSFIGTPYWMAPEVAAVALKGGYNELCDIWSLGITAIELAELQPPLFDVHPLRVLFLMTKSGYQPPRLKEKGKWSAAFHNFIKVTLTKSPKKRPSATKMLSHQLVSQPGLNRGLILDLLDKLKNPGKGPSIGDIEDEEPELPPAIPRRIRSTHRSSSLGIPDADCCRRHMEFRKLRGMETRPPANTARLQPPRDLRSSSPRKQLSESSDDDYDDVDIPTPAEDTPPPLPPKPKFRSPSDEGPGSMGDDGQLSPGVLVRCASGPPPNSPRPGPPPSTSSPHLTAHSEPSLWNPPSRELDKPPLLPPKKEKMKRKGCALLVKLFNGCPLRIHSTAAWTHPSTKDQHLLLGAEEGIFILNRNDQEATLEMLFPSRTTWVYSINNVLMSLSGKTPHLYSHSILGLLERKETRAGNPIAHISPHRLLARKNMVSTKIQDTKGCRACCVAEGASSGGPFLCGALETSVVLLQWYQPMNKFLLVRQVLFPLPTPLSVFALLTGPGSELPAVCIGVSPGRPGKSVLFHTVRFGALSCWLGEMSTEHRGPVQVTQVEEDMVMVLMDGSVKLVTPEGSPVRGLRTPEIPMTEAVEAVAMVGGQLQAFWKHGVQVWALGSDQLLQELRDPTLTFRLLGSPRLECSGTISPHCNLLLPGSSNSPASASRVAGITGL
Protocol: Intracellular HPK1 inhibitory activity was tested by the detection of SLP76 phosphorylation at S376.
Preparation of 1000× drug stock plate: a 1000× compound stock plate was prepared. […] The compound stock plate was sealed with a sealing film and stored in a −20° C. refrigerator for later use.
Preparation of Beads wash buffer: 0.1 mL FBS and 0.4 mL 0.5 M EDTA (with a final concentration of 2 mM) were added to 100 mL PBS and stored in a 4° C. refrigerator for later use.
100× Protease Inhibitor Cocktail in 1/20 total volume was added and stored on wet ice for later use. The buffer was ready to use.
Cell inoculation and dosing: the 1000× drug stock plate was taken and melted at room temperature in the dark. […] Jurkat cells in the logarithmic growth phase were selected and collected. […] The cells were inoculated into a 96-well plate (the volume was 90 μL per well), and a blank control well (without cells inoculation, and in which 110 μL of medium was added) was set. 10 μL of a drug-containing culture medium (10×) was transferred from the 10× drug intermediate plate into the 96-well cell plate (with a final concentration of 0.1% DMSO), and set a DMSO control group (in which 0.1% DMSO was added to the treated cells), a stimulated control group (in which 10 μL of culture medium was added to treat cells) and an unstimulated group (in which 10 μL of culture medium was added to treat cells). The wells were duplicated, gently patted, mixed, and then placed into a 5% CO2 incubator at 37° C. for 1 h.
Anti-CD3 beads stimulation: Dynabeads anti-human CD3 was taken, shaken, and mixed for 60 s. The required volume of beads was pipetted, and an equal volume or at least 1 mL of washing solution was added to wash once. Fresh complete medium was then added to resuspend and adjust the density of the beads to 4×10^7/mL, and the beads were placed on ice for later use. At the end of drug pre-incubation, the cell culture plate was taken out. 10 μL Dynabeads anti-human CD3 was added to each well to treat the cells, and 10 μL the culture medium was added to the unstimulated group. The cell culture plate was shaken to mix well at 2500 rpm for 10 s, and then placed into a 5% CO2 incubator at 37° C. and continued to culture for 20 min.
Detection of p-SLP76 protein level. PathScan Phospho-SLP-76 (Ser376) Sandwich ELISA Kit was applied to detect p-SLP76 protein level. At the end of the Anti-CD3 beads stimulation, the cell culture plate was removed from the incubator. […] After lysis, the cell culture plate was centrifuged at 4° C., 400×g for 5 min. 25 μL of sample and 75 μL of sample diluent were added to each well, and the plate was placed in a 5% CO2 incubator at 37° C. for 2 h. The subsequent detection steps were carried out following the kit instructions, and the absorbance (OD value) of each well was read at 450 nm by a microplate reader.

IC50 (HPK1 [1]) [nM]	IC50 (HPK1 [2]) [nM]	SMILES
0.99	111	N#CCc1c[nH]c2ncc(-c3cc4c(c([C@@H]5CCCN5)c3)COCC4)cc12 (single isomer, unassigned) [Compound Z101-2]
0.52	95.3	Cc1c[nH]c2ncc(-c3cc4c(c([C@@H]5CCCN5)c3)CCN(C(=O)[C@H]3CCOC3)C4)cc12 [Compound Z294, (7-(3-methyl-1H-pyrrolo[2,3-b]pyridin-5-yl)-5-((S)-pyrrolidin-2-yl)-3,4-dihydroisoquinolin-2(1H)-yl) ((S)-tetrahydrofuran-3-yl)methanone]
1.04	181	Cc1cc(C(=O)N2CCc3cc(-c4cnc5[nH]cc(C)c5c4)cc([C@@H]4CCCN4)c3C2)cc(C)n1 [Compound Z214, (S)-(6-(3-methyl-1H-pyrrolo[2,3-b]pyridin-5-yl)-8-(pyrrolidin-2-yl)-3,4-dihydroisoquinolin-2(1H)-yl) (2,6-dimethylpyridin-4-yl)methanone]
0.87	126	Cc1c[nH]c2ncc(-c3cc4c(c([C@@H]5CCCN5)c3)CN(C(=O)c3cnc(C5CC5)nc3)CC4)cc12 [Compound Z351, (S)-(2-cyclopropylpyrimidin-5-yl)(6-(3-methyl-1H-pyrrolo[2,3-b]pyridin-5-yl)-8-(pyrrolidin-2-yl)-3,4-dihydroisoquinolin-2(1H)-yl)methanone]
1.48	354	Nc1ncc(-c2cc3c(c([C@@H]4CCCN4)c2)COCC3)cc1-c1nccs1 [Compound Z238, (S)-5-(8-(pyrrolidin-2-yl)isochroman-6-yl)-3-(thiazol-2-yl)pyridin-2-amine]
0.44	133	CCNC(=O)N1CCc2cc(-c3cnc4[nH]cc(C)c4c3)cc([C@@H]3CCCN3)c2C1 [Compound Z217, (S)—N-ethyl-6-(3-methyl-1H-pyrrolo[2,3-b]pyridin-5-yl)-8-(pyrrolidin-2-yl)-3,4-dihydroisoquinoline-2(1H)-carboxamide]
1.5	412	Cc1c[nH]c2ncc(-c3cc4c(c([C@@H]5CCCN5)c3)CN(CC3CCOCC3)CC4)cc12 [Compound Z442, (S)-6-(3-methyl-1H-pyrrolo[2,3-b]pyridin-5-yl)-8-(pyrrolidin-2-yl)-2-((tetrahydro-2H-pyran-4-yl)methyl)-1,2,3,4-tetrahydroisoquinoline]
3.3	668	CNCc1cc(-c2cnc3[nH]cc(C)c3c2)cc2c1COCC2 [Compound Z298, N-methyl-1-(6-(3-methyl-1H-pyrrolo[2,3-b]pyridin-5-yl)isochroman-8-yl)methanamine]
35.3	> 10000	Cc1c[nH]c2ncc(-c3cc4c(c(C5CC(=O)N5)c3)COCC4)cc12 (stereo not drawn) [Compound Z231, 4-(6-(3-methyl-1H-pyrrolo[2,3-b]pyridin-5-yl)isochroman-8-yl)azetidin-2-one]
231	> 10000	Cc1c[nH]c2ncc(-c3cc([C@@H]4CCCN4)c4cnccc4c3)cc12 (single isomer, unassigned) [Compound Z3-1]
0.71	100	Cc1ccncc1C#Cc1c[nH]c2ncc(-c3cc4c(c([C@@H]5CCCN5)c3)COCC4)cc12 [Compound Z237, (S)-3-((4-methylpyridin-3-yl)ethynyl)-5-(8-(pyrrolidin-2-yl)isochroman-6-yl)-1H-pyrrolo[2,3-b]pyridine]
0.41	108	Cc1c[nH]c2ncc(-c3cc4c(c([C@@H]5CCCN5)c3)CN(C(=O)C(C)(C)O)CC4)cc12 [Compound Z216, (S)-2-hydroxy-2-methyl-1-(6-(3-methyl-11H-pyrrolo[2,3-b]pyridin-5-yl)-8-(pyrrolidin-2-yl)-3,4-dihydroisoquinolin-2(1H)-yl)propan-1-one]
0.48	279	Cc1c[nH]c2ncc(-c3cc4c(c([C@@H]5CCCN5)c3)CN(C(=O)OC3CC3)CC4)cc12 [Compound Z246, (S)-cyclopropyl 6-(3-methyl-1H-pyrrolo[2,3-b]pyridin-5-yl)-8-(pyrrolidin-2-yl)-3,4-dihydroisoquinoline-2(1H)-carboxylate]
1.57	359	Cc1c[nH]c2ncc(-c3cc4c(c([C@@H]5CCCN5)c3)CN(C(=O)c3cn(C)nc3C(F)(F)F)CC4)cc12 [Compound Z337, [6-(3-methyl-1H-pyrrolo[2,3-b]pyridin-5-yl)-8-[(2S)-pyrrolidin-2-yl]-3,4-dihydro-1H-isoquinolin-2-yl]-[l-methyl-3-(trifluoromethyl)pyrazol-4-yl]methanone]
0.66	257	Cc1c[nH]c2ncc(-c3cc4c(c([C@@H]5CCCN5)c3)CN(C(=O)C3CCOC3)CC4)cc12 (stereo partly drawn) [Compound Z219]
0.73	121	Cc1cc(N2CCc3cc(-c4cnc5[nH]cc(C)c5c4)cc([C@@H]4CCCN4)c3C2)ccn1 [Compound Z320, (S)-6-(3-methyl-1H-pyrrolo[2,3-b]pyridin-5-yl)-2-(2-methylpyridin-4-yl)-8-(pyrrolidin-2-yl)-1,2,3,4-tetrahydroisoquinoline formate]
1.43	301	Cc1c[nH]c2ncc(-c3cc4c(c([C@@H]5CCCN5)c3)CN(C(=O)C3CCCCC3)CC4)cc12 [Compound Z125]
3.19	462	Cc1c[nH]c2ncc(-c3cc4c(c([C@@H]5CCCN5)c3)CCN(C3CCOCC3)C4)cc12 [Compound Z401, (S)-7-(3-methyl-1H-pyrrolo[2,3-b]pyridin-5-yl)-5-(pyrrolidin-2-yl)-2-(tetrahydro-2H-pyran-4-yl)-1,2,3,4-tetrahydroisoquinoline]
0.74	197	C[C@@H](C#N)c1c[nH]c2ncc(-c3cc4c(c([C@@H]5CCCN5)c3)COCC4)cc12 (single isomer, unassigned) [Compound Z104-2]
0.71	179	Cc1c[nH]c2ncc(-c3cc4c(c([C@@H]5CCCN5)c3)CN(C(=O)C3CC3)CC4)cc12 [Compound Z122, (S)-1-(6-(3-methyl-1H-pyrrolo[2,3-b]pyridin-5-yl)-8-(pyrrolidin-2-yl)-3,4-dihydroisoquinolin-2(1H)-yl)cyclopropyl methyl ketone]
31.2	7910	Cc1c[nH]c2ncc(-c3cc([C@@H]4CCCN4)c4ccccc4n3)cc12 [Compound Z136, (S)-2-(3-methyl-1H-pyrrolo[2,3-b]pyridin-5-yl)-4-(pyrrolidin-2-yl)quinoline]
5.81	815	Cc1c[nH]c2ncc(-c3cc4c(c(CNC(C)C)c3)COCC4)cc12 [Compound Z111, N-((6-(3-methyl-1H-pyrrolo[2,3-b]pyridin-5-yl)isochroman-8-yl)methyl)propan-2-amine]
5.79	525	CN(C)Cc1cc(-c2cnc3[nH]cc(C(=O)NCC4(CO)CCC4)c3c2)cc2c1COCC2 [Compound Z107, 5-(8-((dimethylamino)methyl)isochroman-6-yl)-N-((1-(hydroxymethyl)cyclobutyl)methyl)-1H-pyrrolo[2,3-b]pyridine-3-carboxamide]
2.65	545	Cc1c[nH]c2ncc(-c3cc4c(c(CN(C)C)c3)COCC4)cc12 [Compound Z103, N,N-dimethyl-1-(6-(3-methyl-1H-pyrrolo[2,3-b]pyridin-5-yl)isochroman-8-yl)methanamine]

SMILES	IC50 (HPK1 [1]) [nM]	IC50 (HPK1 [2]) [nM]
Cc1c[nH]c2ncc(-c3cc4c(c(C5COCCN5)c3)CN(C(=O)[C@](C)(O)C(F)(F)F)CC4)cc12 (stereo partly drawn) [Compound Z296, (2S)-3,3,3-trifluoro-2-hydroxy-2-methyl-1-(6-(3-methyl-1H-pyrrolo[2,3-b]pyridin-5-yl)-8-(morpholin-3-yl)-3,4-dihydroisoquinolin-2(1H)-yl)propan-1-one]	0.86	223
CCNC(=O)N1CCc2cc(-c3cnc4[nH]cc(C(C)C)c4c3)cc([C@@H]3COCCN3)c2C1 [Compound Z429]	0.41	159
Cc1c[nH]c2ncc(-c3cc4c(c([C@@H]5CCCN5)c3)CN(C(=O)Nc3nccs3)C4)cc12 [Compound Z386, (S)-6-(3-methyl-1H-pyrrolo[2,3-b]pyridin-5-yl)-4-(pyrrolidin-2-yl)-N-(thiazol-2-yl)isoindoline-2-carboxamide]	2.74	632
CC(=O)N1CCc2cc(-c3cnc4[nH]cc(C)c4c3)cc(C3CCCN3)c2C1 (stereo not drawn) [Compound Z98, 1-(6-(3-methyl-1H-pyrrolo[2,3-b]pyridin-5-yl)-8(pyrrolidin-2-yl)-3,4-dihydroisoquinolin-2(1H)-yl)ethanone]	0.9	237
Cc1c[nH]c2ncc(-c3cc4c(c([C@@H]5CCCN5)c3)CN(C(=O)c3ccn(C)n3)CC4)cc12 [Compound Z223, (S)-(1-methyl-1H-pyrazol-3-yl)(6-(3-methyl-1H-pyrrolo[2,3-b]pyridin-5-yl)-8-(pyrrolidin-2-yl)-3,4-dihydroisoquinolin-2(1H)-yl)methanone]	1.6	301
CO[C@@H]1CCN(C(=O)N2CCc3cc(-c4cnc5[nH]cc(C)c5c4)cc([C@@H]4CCCN4)c3C2)C1 [Compound Z357-2, ((R)-3-methoxypyrrolidin-1-yl)(6-(3-methyl-1H-pyrrolo[2,3-b]pyridin-5-yl)-8-((S)-pyrrolidin-2-yl)-3,4-dihydroisoquinolin-2(1H)-yl)methanone]	0.26	80.7
